Test results published in ChEMBL document CHEMBL1201862, “PubChem BioAssay data set” (2004).
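Briefly, cells in 96-well plates were exposed to five compound concentrations for 48 h, and endpoints were estimated by linear interpolation. At the GI50, growth is halved.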 Activity calls are given as the source filed them. Cut-off read from the data, not from the text of the source: active = GI50 up to about 1.1 µM and inactive = higher.

Experiments:
Assay in all cases: growth of human tumour cells (NCI), 48 h
786-0 = system: 786-0
A498 = system: A498
CCRF-CEM = system: CCRF-CEM
DU-145 = system: DU-145
HCT-116 = system: HCT-116
HT-29 = system: HT-29
Hs-578T = system: Hs-578T
IGROV-1 = system: IGROV-1
KM12 = system: KM12
M14 = system: M14
MCF7 = system: MCF7
MDA-MB-231 = system: MDA-MB-231
OVCAR-4 = system: OVCAR-4
SF-295 = system: SF-295
SF-539 = system: SF-539
SK-MEL-28 = system: SK-MEL-28
SK-MEL-5 = system: SK-MEL-5
UACC-257 = system: UACC-257
NCI-H226 = system: NCI-H226
SK-MEL-2 = system: SK-MEL-2

Measured: GI50

COc1ccc(C(=O)N2CCc3c([nH]c4ccccc34)C2C(=O)O)o1 (stereo unspecified)
inactive: 786-0 > 10 µM | A498 > 10 µM | CCRF-CEM > 10 µM | DU-145 > 10 µM | HCT-116 > 10 µM | HT-29 > 10 µM | Hs-578T > 10 µM | IGROV-1 > 10 µM | KM12 > 10 µM | M14 > 10 µM | MCF7 > 10 µM | MDA-MB-231 > 10 µM | OVCAR-4 > 10 µM | SF-295 > 10 µM | SF-539 > 10 µM | SK-MEL-28 > 10 µM | SK-MEL-5 > 10 µM | UACC-257 > 10 µM

CC(C)(C)c1cc(S(=O)(=O)O)c2oc(-c3ccccc3)cc(=O)c2c1
inactive: 786-0 > 100 µM | CCRF-CEM > 100 µM | DU-145 > 100 µM | HCT-116 > 100 µM | HT-29 > 100 µM | Hs-578T > 100 µM | IGROV-1 > 100 µM | KM12 > 100 µM | MCF7 > 100 µM | MDA-MB-231 > 100 µM | NCI-H226 > 100 µM | SF-295 > 100 µM | SF-539 > 100 µM | SK-MEL-28 > 100 µM | SK-MEL-5 > 100 µM | UACC-257 > 100 µM

C=C(C)CCC1CC=[N+]([O-])OC1C(C)(C)C (stereo unspecified)
inactive: 786-0 96.4 µM | A498 > 100 µM | CCRF-CEM 11.4 µM | DU-145 37.4 µM | HCT-116 21.8 µM | HT-29 44.5 µM | Hs-578T 36.6 µM | IGROV-1 34.6 µM | KM12 28.2 µM | M14 21.1 µM | MCF7 15.5 µM | MDA-MB-231 26.8 µM | NCI-H226 15.5 µM | SF-295 > 100 µM | SF-539 72.6 µM | SK-MEL-5 32.5 µM | UACC-257 58.6 µM

O=C1CCCN1C(=O)CS(=O)(=O)c1ccccc1
inactive: 786-0 > 100 µM | A498 > 100 µM | CCRF-CEM > 100 µM | DU-145 > 100 µM | HCT-116 > 100 µM | HT-29 > 100 µM | Hs-578T > 100 µM | IGROV-1 > 100 µM | KM12 > 100 µM | M14 > 100 µM | MDA-MB-231 > 100 µM | NCI-H226 > 100 µM | OVCAR-4 > 100 µM | SF-295 > 100 µM | SK-MEL-28 > 100 µM | SK-MEL-2 > 100 µM | SK-MEL-5 > 100 µM | UACC-257 > 100 µM

Nc1ncnc2c1nnn2C1C=CC(CP(=O)(O)O)C1 (stereo unspecified)
inactive: 786-0 > 100 µM | DU-145 > 100 µM | HCT-116 > 100 µM | HT-29 > 100 µM | Hs-578T > 100 µM | IGROV-1 > 100 µM | KM12 > 100 µM | M14 > 100 µM | MCF7 > 100 µM | MDA-MB-231 > 100 µM | NCI-H226 > 100 µM | OVCAR-4 > 100 µM | SF-295 > 100 µM | SF-539 > 100 µM | SK-MEL-28 > 100 µM | SK-MEL-2 > 100 µM | SK-MEL-5 > 100 µM | UACC-257 > 100 µM

Nc1ccc(S(=O)(=O)c2ccc(NC(=O)c3cccnc3)cc2)cc1
inactive: 786-0 > 100 µM | A498 > 100 µM | DU-145 > 100 µM | HCT-116 > 100 µM | HT-29 > 100 µM | Hs-578T 80.9 µM | IGROV-1 > 100 µM | KM12 > 100 µM | M14 > 100 µM | MCF7 > 100 µM | MDA-MB-231 > 100 µM | NCI-H226 > 100 µM | OVCAR-4 62.4 µM | SF-295 > 100 µM | SK-MEL-28 > 100 µM | SK-MEL-5 42.4 µM | UACC-257 53 µM

COc1c(Cl)nc2ccccc2c1N=[N+]=[N-]
inactive: 786-0 > 100 µM | A498 12.4 µM | CCRF-CEM 88.9 µM | DU-145 > 100 µM | HCT-116 52.7 µM | HT-29 > 100 µM | Hs-578T 28.3 µM | IGROV-1 49.5 µM | KM12 > 100 µM | M14 > 100 µM | MCF7 > 100 µM | MDA-MB-231 77.1 µM | OVCAR-4 > 100 µM | SF-295 > 100 µM | SF-539 71.9 µM | SK-MEL-28 > 100 µM | SK-MEL-5 40.5 µM | UACC-257 > 100 µM

COc1ccc(-c2c(C#N)c(-c3ccc(C)cc3)n(NS(=O)(=O)c3ccc(C)cc3)c(=O)c2C#N)cc1
inactive: 786-0 86.5 µM | A498 92 µM | CCRF-CEM 23.7 µM | HCT-116 38.5 µM | HT-29 44.1 µM | Hs-578T 25.1 µM | IGROV-1 39.5 µM | KM12 24.8 µM | M14 55.2 µM | MCF7 24.5 µM | MDA-MB-231 > 100 µM | NCI-H226 > 100 µM | OVCAR-4 31.3 µM | SF-295 37.8 µM | SF-539 32.4 µM | SK-MEL-28 61.1 µM | SK-MEL-2 58.9 µM | SK-MEL-5 23.5 µM | UACC-257 > 100 µM
